Laboratory results: patent US20210169892A1, “MODULATORS OF THE INTEGRATED STRESS PATHWAY” (Calico Life Sciences LLC, priority 2017, published 2021)

Tested on: HEK293T cells carrying the ATF4 luciferase reporter
Test: ATF4-Luc assay (in vitro model of vanishing white matter disease)
Type: cell-based
Conditions: Homo sapiens, HEK-293T; HEK293T cells with ATF4 luciferase reporter, 1 μg/mL tunicamycin, 7 hours, One Glo luminescence
Protocol: In order to test exemplary compounds of the invention in a cellular context, a stable VWMD cell line was first constructed. The ATF4 reporter was prepared by fusing the human full-length ATF4 5′-UTR (NCBI Accession No. BC022088.2) in front of the firefly luciferase (FLuc) coding sequence lacking the initiator methionine as described in Sidrauski et al (eLife 2013). The construct was used to produce recombinant retroviruses using standard methods and the resulting viral supernatant was used to transduce HEK293T cells, which were then subsequently selected with puromycin to generate a stable cell line.
HEK293T cells carrying the ATF4 luciferase reporter were plated on polylysine coated 384-well plates (Greiner Bio-one) at 30,000 cells per well. Cells were treated the next day with 1 μg/mL tunicamycin and 200 nM of a compound of Formula (I) for 7 hours. Luminescence was measured using One Glo (Promega) as specified by the manufacturer. Cells were maintained in DMEM with L-glutamine supplemented with 10% heat-inactivated FBS (Gibco) and Antibiotic-Antimycotic solution (Gibco).
Table 2 below summarizes the EC50 data obtained using the ATF4-Luc assay for exemplary compounds of the invention.

O=C(COc1ccc(Cl)c(F)c1)NC12CC(NC(=O)[C@@H]3COc4ccccc4O3)(C1)C2 [Compound 125, (2S)—N-{3-[2-(4-chloro-3-fluorophenoxy)acetamido]bicyclo[1.1.1]pentan-1-yl}-2,3-dihydro-1,4-benzodioxine-2-carboxamide]
EC50: 50 to 250 nM

O=C(COc1ccc(Cl)c(F)c1)NC12CCC(NC(=O)[C@H]3COc4ccccc4O3)(CC1)[C@@H](O)C2 [Compound 126, (2R)—N-{(2S)-4-[2-(4-chloro-3-fluorophenoxy)acetamido]-2-hydroxybicyclo[2.2.2]octan-1-yl}-2,3-dihydro-1,4-benzodioxine-2-carboxamide]
EC50: < 10 nM

O=C(COc1ccc(Cl)c(F)c1)NC12CCC(NC(=O)[C@@H]3COc4ccccc4O3)(CC1)[C@@H](O)C2 [Compound 127, (2S)—N-{(2S)-4-[2-(4-chloro-3-fluorophenoxy)acetamido]-2-hydroxybicyclo[2.2.2]octan-1-yl}-2,3-dihydro-1,4-benzodioxine-2-carboxamide]
EC50: 10 to 50 nM

O=C(COc1ccc(Cl)c(F)c1)NC12CC(NC(=O)[C@H]3Cc4ccccc4N3)(C1)C2 [Compound 128, (2R)—N-{3-[2-(4-chloro-3-fluorophenoxy)acetamido]bicyclo[1.1.1]pentan-1-yl}-2,3-dihydro-1H-indole-2-carboxamide]
EC50: 50 to 250 nM

O=C(COc1ccc(Cl)c(F)c1)NC12CCC(NC(=O)C3Cc4ccccc4O3)(CC1)C(O)C2 (centres unmarked) [Compound 129, N-{4-[2-(4-chloro-3-fluorophenoxy)acetamido]-2-hydroxybicyclo[2.2.2]octan-1-yl}-2,3-dihydro-1-benzofuran-2-carboxamide]
EC50: 250 to 500 nM

C[C@@]1(C(=O)NC23CC(NC(=O)COc4ccc(Cl)c(F)c4)(C2)C3)COc2cc3c(cc21)OC(F)(F)O3 [Compound 130, (7S)—N-{3-[2-(4-chloro-3-fluorophenoxy)acetamido]bicyclo[1.1.1]pentan-1-yl}-2,2-difluoro-7-methyl-6,7-dihydro-2H-furo[2,3-f][1,3]benzodioxole-7-carboxamide]
EC50: > 2000 nM

C[C@]1(C(=O)NC23CC(NC(=O)COc4ccc(Cl)c(F)c4)(C2)C3)COc2cc3c(cc21)OC(F)(F)O3 [Compound 131, (7R)—N-{3-[2-(4-chloro-3-fluorophenoxy)acetamido]bicyclo[1.1.1]pentan-1-yl}-2,2-difluoro-7-methyl-6,7-dihydro-2H-furo[2,3-f][1,3]benzodioxole-7-carboxamide]
EC50: 500 to 2000 nM

O=C(NC12CC(NC(=O)C3COc4cc(Cl)c(Cl)cc4O3)(C1)C2)c1ccc(OC(F)(F)F)cn1 (centres unmarked) [Compound 132, N-{3-[(6,7-dichloro-2,3-dihydro-1,4-benzodioxine-2-carbonyl)amino]bicyclo[1.1.1]pentan-1-yl}-5-(trifluoromethoxy)pyridine-2-carboxamide]
EC50: 50 to 250 nM

O=C(NC12CC(NC(=O)C3COc4cc(Cl)c(Cl)cc4O3)(C1)C2)c1cnc(C(F)F)cn1 (centres unmarked) [Compound 133, N-{3-[(6,7-dichloro-2,3-dihydro-1,4-benzodioxine-2-carbonyl)amino]bicyclo[1.1.1]pentan-1-yl}-5-(difluoromethyl)pyrazine-2-carboxamide]
EC50: 10 to 50 nM

O=C(COc1ccc(Cl)c(F)c1)NC12CC(NC(=O)C3CN(CCO)c4cc(Cl)ccc4O3)(C1)C2 (centres unmarked) [Compound 135, 6-chloro-N-{3-[2-(4-chloro-3-fluorophenoxy)acetamido]bicyclo[1.1.1]pentan-1-yl}-4-(2-hydroxyethyl)-3,4-dihydro-2H-1,4-benzoxazine-2-carboxamide]
EC50: < 10 nM

O=C(COc1ccc(Cl)c(F)c1)NC12CC(NC(=O)C3CN(C(=O)CO)c4cc(Cl)ccc4O3)(C1)C2 (centres unmarked) [Compound 136, 6-chloro-N-{3-[2-(4-chloro-3-fluorophenoxy)acetamido]bicyclo[1.1.1]pentan-1-yl}-4-(hydroxyacetyl)-3,4-dihydro-2H-1,4-benzoxazine-2-carboxamide]
EC50: < 10 nM
